The source of these data is patent publication US9803002B2, “Anti-wall teichoic antibodies and conjugates” (Genentech, Inc., priority 2013, dated 2017).

≈ marks a conversion by molar mass, not a printed value. Where two headings read alike, the source gives them in different places. The star is where a group is joined. Propanoyl(3-maleimido) = O=C1C=CC(=O)N1CCC(=O)* Some results are limits rather than exact numbers.

The test system of data set [1] is MRSA (NRS384 strain of USA300). The experiment in a line: MIC determinations for extracellular bacteria. As to conditions: Staphylococcus aureus, read-out: Extracellular MRSA MIC.
Description: Dilutions of the antibiotic were made in quadruplicate in 96 well culture dishes. MRSA (NRS384 strain of USA300) was taken from an exponentially growing culture and diluted to 1×10^4 CFU/mL. Bacteria was cultured in the presence of antibiotic for 18-24 hours with shaking at 37° C. and bacterial growth was determined by reading the Optical Density (OD) at 630 nM. The MIC was determined to be the dose of antibiotic that inhibited bacterial growth by >90%.
Data set [2] has as its system MRSA (NRS384 strain of USA300). The experiment in a line: MIC determinations for intracellular bacteria inside mouse peritoneal macrophages. It is filed as cell-based, Staphylococcus aureus. Particulars: for MIC: Staphylococcus aureus, read-out: Intracellular MRSA MIC.
The conditions of data set [3]: clinically achievable serum levels; cited from earlier work.
A further data set deals with T1, staphopain B (Staphylococcus aureus, UniProt P0C1S6).
T1 construct: purchased Sigma-Aldrich S3951
T1 sequence (P0C1S6 220-393): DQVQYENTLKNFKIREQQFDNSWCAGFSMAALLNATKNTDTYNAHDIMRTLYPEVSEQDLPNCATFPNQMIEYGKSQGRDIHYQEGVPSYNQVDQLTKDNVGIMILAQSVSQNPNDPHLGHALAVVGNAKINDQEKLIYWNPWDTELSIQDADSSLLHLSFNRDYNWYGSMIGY
Type of data set: biochemical. Particulars: for Percent cleavage pH 7.2, Staphopain B: PBS pH 7.2, 2 hours at 37° C.; for Percent cleavage pH 7.2, Staphopain B / Cleavage product, Staphopain B: LC-MS.

Another data set has as its target human cathepsin B (Homo sapiens, UniProt P07858). Briefly: Linker cleavage assay with purified protease. It is filed as biochemical. As to conditions: for Percent cleavage pH 7.2, Cathepsin B: PBS pH 7.2, 2 hours at 37° C.; for Percent cleavage pH 7.2, Cathepsin B / Cleavage product, Cathepsin B: LC-MS.
The target in another data set is T2, staphopain A (Staphylococcus aureus, UniProt P81297).
T2 sequence (P81297 215-388): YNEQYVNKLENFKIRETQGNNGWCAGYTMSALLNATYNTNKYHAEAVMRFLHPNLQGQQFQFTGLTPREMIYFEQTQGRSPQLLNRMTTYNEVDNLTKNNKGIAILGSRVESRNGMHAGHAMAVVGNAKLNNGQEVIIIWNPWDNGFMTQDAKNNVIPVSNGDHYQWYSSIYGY
Type of data set: biochemical. As to conditions: for Percent cleavage pH 7.2, Staphopain A: PBS pH 7.2, 2 hours at 37° C.; for Percent cleavage pH 7.2, Staphopain A / Cleavage product, Staphopain A: LC-MS.

Data set [4] has as its system MRSA. Briefly: Intravenous infection model in CB17.SCID mice. It is filed as in vivo, mouse. As to conditions: 50 mg/Kg AAC or 0.5 mg/Kg antibiotic, kidneys 4 days after infection. The procedure:
Mice were sacrificed 4 days after infection and the total number of surviving bacteria per mouse (2 kidneys pooled) was determined by plating.
7 week old female mice were used for all in vivo experiments and infections were carried out by intravenous injection into the tail vein. A/J mice (Jackson Lab) were infected with a dose of 2×10^6 CFU. […] For studies examining the role of competing human IgG (SCID IVIG model), CB17.SCID mice (Charles River Laboratories, Hollister, Calif.) were reconstituted with GammaGard S/D IGIV Immune Globulin (ASD Healthcare, Brooks Ky.) using a dosing regimen optimized to achieve constant serum levels of >10 mg/mL of human IgG. IGIV was administered with an initial intravenous dose of 30 mg per mouse followed by a second dose of 15 mg/mouse by intraperitoneal injection after 6 hours, and subsequent daily dosings of 15 mg per mouse by intraperitoneal injection for 3 consecutive days. Mice were infected 4 hours after the first dose of IGIV with 2×10^7 CFU of MRSA diluted in phosphate buffered saline by intravenous injection. Mice that received vancomycin were treated with twice daily intraperitoneal injections of 100 mg/Kg of vancomycin starting between 6 and 24 hours post infection for the duration of the study. […]

For data set [5], the system named is MRSA. As to conditions: TSB media; vancomycin 2 and 20 μg/mL, rifampin 0.02 and 0.2 μg/mL.
[6] abbreviates: MRSA inside mouse peritoneal macrophages, antibiotics added 1 day after infection, survival assessed 24 hours later.
[7] abbreviates: 5 μM conjugate, 50 nM protease, Sodium Citrate pH 5, 2 hours at 37° C.
Where [8] appears, read: listed as MP-LAFG-piperazino-rifamycin.

Description for human cathepsin B: The experimental mal-peptide-QSY7 linkers were conjugated to THIOFAB S4497 to evaluate the cleavability of these linkers.
Fractions from each chromatography step were analyzed for activity, and 100 ul was used regardless of protein concentration. Samples were incubated overnight at 37° C. and subsequently analyzed by LC-MS to identify fractions where protease cleavage of the linker-antibiotic had occurred. Pooled active fractions from the Q Sepharose FF chromatography were measured to have a total protein concentration of 14 mg/ml. 200 μg of the pool was diluted to 2 mg/ml in PBS and was incubated with and without N-ethylmaleimide (NEM, Sigma) at a concentration of 0.1 mM final. Samples were incubated at room temperature for 1 hour. […] At 2 hours, samples were analyzed by LC-MS to identify whether protease cleavage of the linker-antibiotic had occurred. About 50 ul of the active fractions from SEC were incubated with 0.1 mM Alexa Fluor 488 C5 maleimide (Invitrogen) for 1 hour regardless of protein concentration for labeling. Cleavage assays with purified proteases were performed by incubating 5 uM of the thioFAB conjugate with 50 nM protease in a final volume of 100 ul. Assays were either performed in PBS pH 7.2, 4 mM L-Cys, 2.5 mM EDTA or 100 mM Sodium Citrate pH 5, 100 mM NaCl, 4 mM L-Cys, 2.5 mM EDTA. Samples were incubated for 2 hours at 37° C. At 2 hours, cleavage reactions were quenched by diluting 1:1 with 1% TFA. Samples were subsequently run on LC-MS to determine percent linker cleavage. Percent cleavage was determined by integrating the A280 chromatograms of the cleaved and intact species. The antibiotic or chromophore moieties added on the C-terminus of the linkers add significant hydrophobicity, such that thioFAB with intact linkers and thioFAB with cleaved linkers are baseline resolved.
(§1) 5 μM of thioFAB 4497 MP-LAFGA-QSY7(“core peptide” disclosed as SEQ ID NO: 135) and thioFAB 4497 MP-LAFAA-QSY7 (“core peptide” disclosed as SEQ ID NO: 136) (FIG. 30) were incubated with 50 nM of protease in PBS pH 7.2, 4 mM L-Cys, 2.5 mM EDTA for 2 hours at 37° C. At 2 hours, cleavage reactions were quenched by diluting 1:1 with 1% TFA. Samples were subsequently run on LC-MS to determine percent linker cleavage.
Description for staphopain A: Fractions from each chromatography step were analyzed for activity, and 100 ul was used regardless of protein concentration. Samples were incubated overnight at 37° C. and subsequently analyzed by LC-MS to identify fractions where protease cleavage of the linker-antibiotic had occurred. Pooled active fractions from the Q Sepharose FF chromatography were measured to have a total protein concentration of 14 mg/ml. 200 μg of the pool was diluted to 2 mg/ml in PBS and was incubated with and without N-ethylmaleimide (NEM, Sigma) at a concentration of 0.1 mM final. Samples were incubated at room temperature for 1 hour. […] At 2 hours, samples were analyzed by LC-MS to identify whether protease cleavage of the linker-antibiotic had occurred. About 50 ul of the active fractions from SEC were incubated with 0.1 mM Alexa Fluor 488 C5 maleimide (Invitrogen) for 1 hour regardless of protein concentration for labeling. Cleavage assays with purified proteases were performed by incubating 5 uM of the thioFAB conjugate with 50 nM protease in a final volume of 100 ul. Assays were either performed in PBS pH 7.2, 4 mM L-Cys, 2.5 mM EDTA or 100 mM Sodium Citrate pH 5, 100 mM NaCl, 4 mM L-Cys, 2.5 mM EDTA. Samples were incubated for 2 hours at 37° C. At 2 hours, cleavage reactions were quenched by diluting 1:1 with 1% TFA. Samples were subsequently run on LC-MS to determine percent linker cleavage. Percent cleavage was determined by integrating the A280 chromatograms of the cleaved and intact species.
as §1
5 μM of AAC-193 was incubated with 50 nM of protease in either PBS pH 7.2, 4 mM L-Cys, 2.5 mM EDTA or 100 mM Sodium Citrate pH 5, 100 mM NaCl, 4 mM L-Cys, 2.5 mM EDTA for 2 hours at 37° C. At 2 hours, cleavage reactions were quenched by diluting 1:1 with 1% TFA. Samples were subsequently run on LC-MS to determine percent linker cleavage.
Description for staphopain B: Cleavage assays with purified proteases were performed by incubating 5 uM of the thioFAB conjugate with 50 nM protease in a final volume of 100 ul. Assays were either performed in PBS pH 7.2, 4 mM L-Cys, 2.5 mM EDTA or 100 mM Sodium Citrate pH 5, 100 mM NaCl, 4 mM L-Cys, 2.5 mM EDTA. Samples were incubated for 2 hours at 37° C. At 2 hours, cleavage reactions were quenched by diluting 1:1 with 1% TFA. Samples were subsequently run on LC-MS to determine percent linker cleavage. Percent cleavage was determined by integrating the A280 chromatograms of the cleaved and intact species. The antibiotic or chromophore moieties added on the C-terminus of the linkers add significant hydrophobicity, such that thioFAB with intact linkers and thioFAB with cleaved linkers are baseline resolved.
At 2 hours, cleavage reactions were quenched by diluting 1:1 with 1% TFA. Samples were subsequently run on LC-MS to determine percent linker cleavage.

Consider `CCCCCCCCCC(=O)N[C@@H](Cc1c[nH]c2ccccc12)C(=O)N[C@H](CC(N)=O)C(=O)N[C@@H](CC(=O)O)C(=O)N[C@@H]1C(=O)NCC(=O)N[C@@H](CCCN)C(=O)N[C@@H](CC(=O)O)C(=O)N[C@H](C)C(=O)N[C@@H](CC(=O)O)C(=O)NCC(=O)N[C@H](CO)C(=O)N[C@@H]([C@H](C)CC(=O)O)C(=O)N[C@@H](CC(=O)c2ccccc2N)C(=O)O[C@@H]1C` [Daptomycin], for which the MIC is 4 µg/mL (≈ 2.47 µM) in data set [1] and more than 100 µg/mL in data set [2] (setting [6]). The “Serum Cmax” value in data set [3] was 80000 ng/mL.

With `CC(=O)NC[C@H]1CN(c2ccc(N3CCOCC3)c(F)c2)C(=O)O1` [Linezolid], the MIC is 0.3 µg/mL (≈ 0.889 µM) in data set [1] and more than 20 µg/mL in data set [2] (24 h). Also, in data set [3], the “Serum Cmax” value is 10000 ng/mL.

As to “piperidyl benzoxazino rifamycin [pipBOR]”, the “killing intracellular MRSA when tested as free antibiotics” value in data set [2] is reported as “more potent than rifampicin”.

Consider “MP-LAFAA-QSY7: maleimido-propionic-Leu-Ala-Phe-Ala-Ala linker with QSY7 as antibiotic surrogate, tested conjugated to thioFAB S4497 ({Propanoyl(3-maleimido)}-LAFAA-QSY7; also: conjugated to thioFAB S4497)”, for which the “Percent cleavage pH 7.2, Staphopain B” value with staphopain B (5 μM conjugate, 50 nM protease) is on record as 100%. Besides, the “Cleavage product, Staphopain B” value with staphopain B is “A-QSY7”. In addition, in the data set with human cathepsin B (5 μM conjugate, 50 nM protease), the “Percent cleavage pH 7.2, Cathepsin B” value worked out at 100%. In the data set with human cathepsin B, the “Cleavage product, Cathepsin B” value was “A-QSY7, and QSY7”. Also, the “Percent cleavage pH 7.2, Staphopain A” value in the data set with staphopain A (5 μM conjugate, 50 nM protease) is 23%. In addition, in the data set with staphopain A, the “Cleavage product, Staphopain A” value is given as “A-QSY7”.

Turning to `CO[C@H]1/C=C/O[C@@]2(C)Oc3c(C)c(O)c4c(=O)c(c5oc6cc(N7CCN(C(=O)OCc8ccc(NC(=O)CNC(=O)[C@H](Cc9ccccc9)NC(=O)[C@H](C)NC(=O)[C@H](CC(C)C)NC(=O)CCN9C(=O)C=CC9=O)cc8)CC7)cc(O)c6nc-5c4c3C2=O)NC(=O)/C(C)=C\C=C\[C@H](C)[C@H](O)[C@@H](C)[C@@H](O)[C@@H](C)[C@H](OC(C)=O)[C@@H]1C` [LA-104, MP-LAFG-PABC-(piperazinoBOR)], on staphopain B (5 μM conjugate, 50 nM protease), the “Percent cleavage pH 7.2, Staphopain B” value came out at 100%. Also, the “Percent cleavage pH 5, Staphopain B” value at staphopain B (setting [7]) turned out to be 100%. Besides, the “Cleavage product, Staphopain B” value on staphopain B was “piperazino-”; on staphopain B (setting [8]), “free rifamycin”. In addition, the “Percent cleavage pH 7.2, Cathepsin B” value at human cathepsin B (5 μM conjugate, 50 nM protease) is reported as 64%. In addition, the “Percent cleavage pH 5, Cathepsin B” value at human cathepsin B (setting [7]) came out at 100%. The “Cleavage product, Cathepsin B” value on human cathepsin B is reported as “Phe-Gly-piperazino-rifamycin”. On staphopain A (5 μM conjugate, 50 nM protease), the “Percent cleavage pH 7.2, Staphopain A” value came out at 46%. Besides, the “Percent cleavage pH 5, Staphopain A” value at staphopain A (setting [7]) worked out at 100%. The “Cleavage product, Staphopain A” value on staphopain A is recorded as “piperazino-”; at staphopain A (setting [8]) it was “free rifamycin”.

Consider “MP-LAFGA-QSY7: maleimido-propionic-Leu-Ala-Phe-Gly-Ala linker with QSY7 as antibiotic surrogate, tested conjugated to thioFAB S4497 ({Propanoyl(3-maleimido)}-LAFGA-QSY7; also: conjugated to thioFAB S4497)”, for which, in the data set with staphopain B (5 μM conjugate, 50 nM protease), the “Percent cleavage pH 7.2, Staphopain B” value is 100%. The “Cleavage product, Staphopain B” value in the data set with staphopain B was “A-QSY7”. Also, the “Percent cleavage pH 7.2, Cathepsin B” value with human cathepsin B (5 μM conjugate, 50 nM protease) was 100%. Also, in the data set with human cathepsin B, the “Cleavage product, Cathepsin B” value is recorded as “A-QSY7”. For the same compound, the “Percent cleavage pH 7.2, Staphopain A” value with staphopain A (5 μM conjugate, 50 nM protease) is reported as 38%. In addition, in the data set with staphopain A, the “Cleavage product, Staphopain A” value was “A-QSY7”.

As for “dimethylpiperidyl benzoxazino rifamycin [dimethyl-pipBOR]”, in the data set on MRSA [4], the “efficacy when given 1 day post infection” value was “failed to clear the infection”. The “killing intracellular MRSA when tested as free antibiotics” value in data set [2] is given as “more potent than rifampicin”.

As to `CO[C@H]1/C=C/O[C@@]2(C)Oc3c(C)c(O)c4c(O)c(c(/C=N/N5CCN(C)CC5)c(O)c4c3C2=O)NC(=O)/C(C)=C\C=C\[C@H](C)[C@H](O)[C@@H](C)[C@@H](O)[C@@H](C)[C@H](OC(C)=O)[C@@H]1C` [Rifampicin], the MIC in data set [1] was determined as 0.004 µg/mL (≈ 0.00486 µM). Moreover, in the data set with MRSA [5], the “bacteria remained viable during the first two hours of antibiotic treatment” value is listed as 90% and the “loss in viable bacteria by 5 hours” value is given as 100 fold. Also, the MIC in data set [2] (setting [6]) is more than 20 µg/mL. Also, in data set [3], the “Serum Cmax” value was 20000 ng/mL.
